From patent US7723527B2 (Janssen Pharmaceutica NV, priority 2003, dated 2010)
Like-named read-outs stand apart in the source and are kept apart here.

Molecular target: T1, human histamine H4 receptor (Homo sapiens, UniProt Q9H3N8)
T1 construct: expressed in transfected cells; host or cells: SK-N-MC cells or COS7 cells, transiently transfected; cell membranes used
Assay: Binding assay on recombinant human histamine H4 receptor (3H-histamine displacement)
Description: SK—N-MC cells or COS7 cells were transiently transfected with pH4R and grown in 150 cm^2 tissue culture dishes. Cells were washed with saline solution, scraped with a cell scraper and collected by centrifugation (1000 rpm, 5 min). Cell membranes were prepared by homogenization of the cell pellet in 20 mM Tris-HCl with a polytron tissue homogenizer for 10 s at high speed. Homogenate was centrifuged at 1000 rpm for 5 min at 4° C. The supernatant was then collected and centrifuged at 20,000×g for 25 min at 4° C. The final pellet was resuspended in 50 mM Tris-HCl. Cell membranes were incubated with ^3H-histamine (5-70 nM) in the presence or absence of excess histamine (10,000 nM). Incubation occurred at room temperature for 45 min. Membranes were harvested by rapid filtration over Whatman GF/C filters and washed 4 times with ice-cold 50 mM Tris HCl. Filters were then dried, mixed with scintillant and counted for radioactivity. SK—N-MC or COS7 cells expressing human histamine H4 receptor were used to measure the affinity of binding of other compounds and their ability to displace ^3H-ligand binding by incubating the above-described reaction in the presence of various concentrations of inhibitor or compound to be tested.

[1] = competition binding with 3H-histamine, membranes of SK-N-MC or COS7 cells expressing human H4 receptor, Cheng-Prusoff, KD 5 nM, ligand 5 nM

Ki [1] [nM]	Ki [nM]	SMILES
17		Cc1cc(Cl)cc2[nH]c(-c3ccc(OCCCC4CCN(C)CC4)cc3Cl)nc12 [Example 57, 6-Chloro-2-{2-chloro-4-[3-(1-methyl-piperidin-4-yl)-propoxy]-phenyl}-4-methyl-1H-benzoimidazole]
101		CN1CCC(CCCOc2ccc(-c3nc4cc(C(C)(C)C)ccc4[nH]3)cc2Cl)CC1 [Example 58, 5-tert-Butyl-2-{3-chloro-4-[3-(1-methyl-piperidin-4-yl)-propoxy]-phenyl}-1H-benzoimidazole]
86		Cc1ccc2[nH]c(-c3ccc(OCCCC4CCN(C)CC4)cc3Cl)nc2c1C [Example 59, 2-{2-Chloro-4-[3-(1-methyl-piperidin-4-yl)-propoxy]-phenyl}-4,5-dimethyl-1H-benzoimidazole]
39		Cc1cc2[nH]c(-c3ccc(OCCCC4CCN(C)CC4)cc3)nc2cc1Cl [Example 60, 5-Chloro-6-methyl-2-{4-[3-(1-methyl-piperidin-4-yl)-propoxy]-phenyl}-1H-benzoimidazole]
49		CN1CCC(CCCOc2ccc(-c3nc4cc(Cl)ccc4[nH]3)cc2)CC1 [Example 61, 5-Chloro-2-{4-[3-(1-methyl-piperidin-4-yl)-propoxy]-phenyl}-1H-benzoimidazole]
51		CN1CCC(CCCOc2ccc(-c3nc4cc(Cl)c(F)cc4[nH]3)cc2)CC1 [Example 62, 5-Chloro-6-fluoro-2-{4-[3-(1-methyl-piperidin-4-yl)-propoxy]-phenyl}-1H-benzoimidazole]
57		CN1CCC(CCCOc2ccc(-c3nc4cc(C(C)(C)C)ccc4[nH]3)cc2)CC1 [Example 63, 5-tert-Butyl-2-{4-[3-(1-methyl-piperidin-4-yl)-propoxy]-phenyl}-1H-benzoimidazole]
121		Cc1ccc2[nH]c(-c3ccc(OCCCC4CCN(C)CC4)cc3)nc2c1 [Example 64, 5-Methyl-2-{4-[3-(1-methyl-piperidin-4-yl)-propoxy]-phenyl}-1H-benzoimidazole]
	157	CN1CCC(CCCOc2ccc(-c3nc4ccccc4[nH]3)cc2)CC1 [Example 65, 2-{4-[3-(1-Methyl-piperidin-4-yl)-propoxy]-phenyl}-1H-benzoimidazole]
32		Cc1cc(Cl)cc2[nH]c(-c3ccc(OCCCC4CCN(C)CC4)cc3F)nc12 [Example 66, 6-Chloro-2-{2-fluoro-4-[3-(1-methyl-piperidin-4-yl)-propoxy]-phenyl}-4-methyl-1H-benzoimidazole]
1		Cc1cc(OCCCC2CCN(C)CC2)ccc1-c1nc2cc(F)ccc2[nH]1 [Example 67, 5-Fluoro-2-{2-methyl-4-[3-(1-methyl-piperidin-4-yl)-propoxy]-phenyl}-1H-benzoimidazole]
5		Cc1cc(OCCCC2CCN(C)CC2)ccc1-c1nc2c(Cl)cccc2[nH]1 [Example 68, 4-Chloro-2-{2-methyl-4-[3-(1-methyl-piperidin-4-yl)-propoxy]-phenyl}-1H-benzoimidazole]
6		Cc1cc(OCCCC2CCN(C)CC2)ccc1-c1nc2c(C)cc(Cl)cc2[nH]1 [Example 69, 6-Chloro-4-methyl-2-{2-methyl-4-[3-(1-methyl-piperidin-4-yl)-propoxy]-phenyl}-1H-benzoimidazole]
20		CN1CCC(CCCOc2ccc(-c3nc4cc(Cl)c(F)cc4[nH]3)c(Cl)c2)CC1 [Example 70, 5-Chloro-2-{2-chloro-4-[3-(1-methyl-piperidin-4-yl)-propoxy]-phenyl}-6-fluoro-1H-benzoimidazole]
26		CN1CCC(CCCOc2ccc(-c3nc4c(ccc5ccccc54)[nH]3)c(Cl)c2)CC1 [Example 71, 2-{2-Chloro-4-[3-(1-methyl-piperidin-4-yl)-propoxy]-phenyl}-3H-naphtho[1,2-d]imidazole]
5		Cc1cc(C)c2nc(-c3ccc(OCCCN4CCN(C)CC4)cc3C)[nH]c2c1 [Example 72, 4,6-Dimethyl-2-{2-methyl-4-[3-(4-methyl-piperazin-1-yl)-propoxy]-phenyl}-1H-benzoimidazole]
69		Cc1cccc2[nH]c(-c3ccc(OCCCN4CCN(C)CC4)cc3Cl)nc12 [Example 73, 2-{2-Chloro-4-[3-(4-methyl-piperazin-1-yl)-propoxy]-phenyl}-4-methyl-1H-benzoimidazole]

More lines, now with the values behind:

SMILES	Ki [1] [nM]	Ki [nM]
CN1CCN(CCCOc2ccc(-c3nc4cc(Cl)c(F)cc4[nH]3)c(Cl)c2)CC1 [Example 37, 5-Chloro-2-{2-chloro-4-[3-(4-methyl-piperazin-1-yl)-propoxy]-phenyl}-6-fluoro-1H-benzoimidazole]	36	
Cc1cc(-c2nc3cc(Cl)ccc3[nH]2)ccc1OCCCN1CCN(C)CC1 [Example 38, 5-Chloro-2-{3-methyl-4-[3-(4-methyl-piperazin-1-yl)-propoxy]-phenyl}-1H-benzoimidazole]	65	
Cc1ccc2[nH]c(-c3ccc(OCCCN4CCN(C)CC4)c(Cl)c3)nc2c1 [Example 39, 2-{3-Chloro-4-[3-(4-methyl-piperazin-1-yl)-propoxy]-phenyl}-5-methyl-1H-benzoimidazole]	66	
CN1CCN(CCCOc2ccc(-c3nc4cc(Cl)c(Cl)cc4[nH]3)cc2Cl)CC1 [Example 40, 5,6-Dichloro-2-{3-chloro-4-[3-(4-methyl-piperazin-1-yl)-propoxy]-phenyl}-1H-benzoimidazole]	74	
Cc1cc2[nH]c(-c3ccc(OCCCN4CCN(C)CC4)c(C)c3)nc2cc1Cl [Example 41, 5-Chloro-6-methyl-2-{3-methyl-4-[3-(4-methyl-piperazin-1-yl)-propoxy]-phenyl}-1H-benzoimidazole]	78	
Cc1ccc2[nH]c(-c3ccc(OCCCN4CCN(C)CC4)cc3Cl)nc2c1 [Example 42, 2-{2-Chloro-4-[3-(4-methyl-piperazin-1-yl)-propoxy]-phenyl}-5-methyl-1H-benzoimidazole]	79	
CN1CCN(CCCOc2ccc(-c3nc4cc(Cl)ccc4[nH]3)cc2Cl)CC1 [Example 43, 5-Chloro-2-{3-chloro-4-[3-(4-methyl-piperazin-1-yl)-propoxy]-phenyl}-1H-benzoimidazole]	82	
CN1CCN(CCCOc2ccc(-c3nc4cc(C(F)(F)F)ccc4[nH]3)cc2Cl)CC1 [Example 44, 2-{3-Chloro-4-[3-(4-methyl-piperazin-1-yl)-propoxy]-phenyl}-5-trifluoromethyl-1H-benzoimidazole]	87	
Cc1cc(-c2nc3cc(Cl)c(F)cc3[nH]2)ccc1OCCCN1CCN(C)CC1 [Example 45, 5-Chloro-6-fluoro-2-{3-methyl-4-[3-(4-methyl-piperazin-1-yl)-propoxy]-phenyl}-1H-benzoimidazole]	110	
Cc1ccc2[nH]c(-c3ccc(OCCCN4CCN(C)CC4)c(C)c3)nc2c1 [Example 46, 5-Methyl-2-{3-methyl-4-[3-(4-methyl-piperazin-1-yl)-propoxy]-phenyl}-1H-benzoimidazole]	113	
CN1CCN(CCCOc2ccc(-c3nc4ccccc4[nH]3)cc2Cl)CC1 [Example 47, 2-{3-Chloro-4-[3-(4-methyl-piperazin-1-yl)-propoxy]-phenyl}-1H-benzoimidazole]	129	
Cc1cc(-c2nc3ccccc3[nH]2)ccc1OCCCN1CCN(C)CC1 [Example 48, 2-{3-Methyl-4-[3-(4-methyl-piperazin-1-yl)-propoxy]-phenyl}-1H-benzoimidazole]	154	
CN1CCN(CCCOc2ccc(-c3nc4ccccc4[nH]3)c(Cl)c2)CC1 [Example 49, 2-{2-Chloro-4-[3-(4-methyl-piperazin-1-yl)-propoxy]-phenyl}-1H-benzoimidazole]	173	
COc1cc(-c2nc3cc(Cl)c(F)cc3[nH]2)ccc1OCCCN1CCN(C)CC1 [Example 50, 5-Chloro-6-fluoro-2-{3-methoxy-4-[3-(4-methyl-piperazin-1-yl)-propoxy]-phenyl}-1H-benzoimidazole]	187	
COc1ccc2[nH]c(-c3ccc(OCCCN4CCN(C)CC4)c(Cl)c3)nc2c1 [Example 51, 2-{3-Chloro-4-[3-(4-methyl-piperazin-1-yl)-propoxy]-phenyl}-5-methoxy-1H-benzoimidazole]	278	
CN1CCN(CCCOc2c(Br)cc(-c3nc4cc(C(C)(C)C)ccc4[nH]3)cc2Br)CC1 [Example 52, 5-tert-Butyl-2-{3,5-dibromo-4-[3-(4-methyl-piperazin-1-yl)-propoxy]-phenyl}-1H-benzoimidazole]	641	
COc1cc(OCCCN2CCN(C)CC2)ccc1-c1nc2cc(C(F)(F)F)ccc2[nH]1 [Example 53, 2-{2-Methoxy-4-[3-(4-methyl-piperazin-1-yl)-propoxy]-phenyl}-5-trifluoromethyl-1H-benzoimidazole]	872	
CN1CCN(CCCOc2ccc(-c3nc4cc(C(F)(F)F)ccc4[nH]3)c(Cl)c2)CC1 [Example 54, 2-{2-Chloro-4-[3-(4-methyl-piperazin-1-yl)-propoxy]-phenyl}-5-trifluoromethyl-1H-benzoimidazole]	30	
CN1CCN(CCCOc2cccc(-c3nc4ccccc4[nH]3)c2)CC1 [Example 55, 2-{3-[3-(4-Methyl-piperazin-1-yl)-propoxy]-phenyl}-1H-benzoimidazole]	203	
CN1CCN(CCCCOc2cccc(-c3nc4cc(C(=O)c5ccccc5)ccc4[nH]3)c2)CC1 [Example 56, (2-{3-[4-(4-Methyl-piperazin-1-yl)-butoxy]-phenyl}-1H-benzoimidazol-5-yl)-phenyl-methanone]	324	
